Assay: Temperature cycling / physical stability of solvents, systems and formulations
Format: physicochemical
Method: Temperature Cycling of Selected Solvents and Solubility Systems was studied. Systems were prepared at ambient temperature, with mixed solvent in the weight ratios reported in brackets. Mitotane, 0.25 grams, was then added to 1 gram of each solvent or solvent mixture. Samples were placed in the refrigerator (5° C.±3° C.) and observations were recorded. The samples were then left at ambient temperature for 24 hours, and observations recorded. The samples were then placed in a 40° C. oven, and final observation was made after another 24 hours. These observations are recorded in the table below.
Based on these studies, several formulations were prepared (see Tables 10 and 11). Temperature cycling was tested to evaluate the physical stability of the three formulations F-2772-054 (33.3% drug w/w), F-2772-055 (20.0% drug w/w), and F-2772-057 (33.3% drug w/w) as well as formulations F-2772-054 and 057 at 28.5% drug w/w. […] Temperature cycling consisted of three stages for 24 hour periods; refrigeration (5° C.), 40° C. conventional oven, and room temperature. After each 24 hour cycle, solutions were evaluated for clarity.

Clc1ccc(C(c2ccccc2Cl)C(Cl)Cl)cc1 (centres unmarked) [mitotane, Mitotane]
Highest mitotane concentration trial found to be the most stable: 28.5 % weight/weight | Highest most stable mitotane concentration expressed as drug loading (28.5/(100-28.5)): 40 % drug loading

From patent publication US9770509B2, “Self micro-emulsifying drug delivery system with increased bioavailability” (Pharmaceutics International, Inc., priority 2010, dated 2017)
